Assay results reported in patent US4791215A, “Derivatives of glutamic acid and aspartic acid” (priority 1984, dated 1988).

Tests used:
biliary flow = test: Biliary flow (choleretic activity); type: in vivo, rat
Procedure: The following experiment was carried out: a cannula was inserted in the bile duct of a rat anaesthetised with urethane, together with a small needle connected to a polythene tube, and the bile liquid was thus collected. The collection was carried out for one hour before the intravenous administration of the tested compounds and for a further two hours after administration, the samples collected at 30 minute intervals being weighed.
In order to prevent possible dehydration of the animals, 0.5 ml of physiological solution was administered at 30 minute intervals up to a total of 3 ml.

morphine analgesia = test: Increase in analgesia of morphine, Tail Flick Test (Experiment 1); type: in vivo, rats; conditions: for percentage variation of latency of pain sensation / M (10-90) ± SE, mean percentage variation of latency: compound 10 mg/kg i.p. + morphine 2 mg/kg; for M (10-90) ± SE, mean percentage variation of latency: mean 10-90 min; for Power ratio with respect to morphine alone: rat, in vivo
Method in brief: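 Non-fasted male rats (150-200 g); a tail point is exposed to a 75 °C heat source and latency to tail movement recorded, 8 s cut-off. Readings taken before and 10, 20, 30, 45, 60 and 90 min after analgesic treatment; percentage variation calculated per animal.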

[1] = system: activity of analgesic drugs; test: Hot-plate test, potentiation of analgesic drugs (Experiment 2); type: in vivo, rats
Procedure: Experiment No. 2: Hot-plate test
The method is that described by Eddy et al. (J. Pharmac. Exp. Ther. 107, 385 (1953)).
Groups of five male rats having a weight of about 150 g, and which have not fasted, are used.
The animals are placed on a metal plate on the bottom of a transparent cylinder, which is heated to 55°±1° C. by an azeotropic boiling mixture (acetone-ethyl formate 1:1).
The reaction time is defined as the interval which passes between the moment at which the animal is placed on the hot-plate and the moment at which it either licks its feet or tries to jump out of the cylinder. The control reaction time is measured 10 and 5 minutes before administration of the drugs and 10, 20, 30, 45, 60 and 90 minutes afterwards. The animals are left on the plate for a maximum period of 30 seconds.
The response to the administration of the product is considered positive if at least a doubling of the normal reaction time is seen. The results obtained are given in Tables 2a and 2b which record the groups treated, the doses administered and the stay times on the plate expressed as the number of positive responses over the number treated.

CCCN(CCC)C(=O)C(CCC(=O)O)NC(=O)c1cccc(C#N)c1 (stereo not shown) [Compound C-20]
% increase in biliary flow with respect to controls (biliary flow; 12.5 mg/kg i.v.): +48.5% | % increase in biliary flow with respect to controls (biliary flow; 25 mg/kg i.v.): +63.9% | % increase in biliary flow with respect to controls (biliary flow; 50 mg/kg i.v.): +108.0% | ED50 (biliary flow; Rattus norvegicus, iv, average over 2 hours, read-out: ED50 (dose causing 50% increase in biliary flow)): 19.4 mg/kg | percentage variation of latency of pain sensation (morphine analgesia; 10'): 53.8% | percentage variation of latency of pain sensation (morphine analgesia; 20'): 85.7 ± 10.0% | percentage variation of latency of pain sensation (morphine analgesia; 30'): 92.0 ± 8.0% | percentage variation of latency of pain sensation (morphine analgesia; 45'): 99.1 ± 1.0% | percentage variation of latency of pain sensation (morphine analgesia; 60'): 91.2 ± 9.0% | percentage variation of latency of pain sensation (morphine analgesia; 90'): 51.2% | M (10-90) ± SE, mean percentage variation of latency (morphine analgesia): 78.8 ± 21.0% | Power ratio with respect to morphine alone (morphine analgesia): 2.64 | TOTAL positives ([1]; ASA 100 + compound 5 mg/kg i.p.): 12 x/30 | positive responses over number treated ([1]; ASA 100 + compound 5 mg/kg i.p., 10'): 2/5 | positive responses over number treated ([1]; ASA 100 + compound 5 mg/kg i.p., 20'): 2/5 | positive responses over number treated ([1]; ASA 100 + compound 5 mg/kg i.p., 30'): 2/5 | positive responses over number treated ([1]; ASA 100 + compound 5 mg/kg i.p., 45'): 3/5 | positive responses over number treated ([1]; ASA 100 + compound 5 mg/kg i.p., 60'): 3/5 | positive responses over number treated ([1]; ASA 100 + compound 5 mg/kg i.p., 90'): 0/5 | TOTAL positives ([1]; ASA 100 + compound 20 mg/kg i.p.): 17 x/30 | positive responses over number treated ([1]; ASA 100 + compound 20 mg/kg i.p., 10'): 1/5 | positive responses over number treated ([1]; ASA 100 + compound 20 mg/kg i.p., 20'): 3/5 | positive responses over number treated ([1]; ASA 100 + compound 20 mg/kg i.p., 30'): 3/5 | positive responses over number treated ([1]; ASA 100 + compound 20 mg/kg i.p., 45'): 3/5 | positive responses over number treated ([1]; ASA 100 + compound 20 mg/kg i.p., 60'): 4/5 | positive responses over number treated ([1]; ASA 100 + compound 20 mg/kg i.p., 90'): 3/5 | TOTAL positives ([1]; ASA 100 + compound 50 mg/kg i.p.): 22 x/30 | positive responses over number treated ([1]; ASA 100 + compound 50 mg/kg i.p., 10'): 3/5 | positive responses over number treated ([1]; ASA 100 + compound 50 mg/kg i.p., 20'): 2/5 | positive responses over number treated ([1]; ASA 100 + compound 50 mg/kg i.p., 30'): 5/5 | positive responses over number treated ([1]; ASA 100 + compound 50 mg/kg i.p., 45'): 5/5 | positive responses over number treated ([1]; ASA 100 + compound 50 mg/kg i.p., 60'): 4/5 | positive responses over number treated ([1]; ASA 100 + compound 50 mg/kg i.p., 90'): 3/5 | effect on analgesic activity of propoxyphene ([1]; compound 3 mg/kg i.p.): can double the analgesic activity of propoxyphene | TOTAL positives ([1]; propoxyphene 15 + compound 1 mg/kg i.p.): 16 x/30 | positive responses over number treated ([1]; propoxyphene 15 + compound 1 mg/kg i.p., 10'): 2/5 | positive responses over number treated ([1]; propoxyphene 15 + compound 1 mg/kg i.p., 20'): 2/5 | positive responses over number treated ([1]; propoxyphene 15 + compound 1 mg/kg i.p., 30'): 3/5 | positive responses over number treated ([1]; propoxyphene 15 + compound 1 mg/kg i.p., 45'): 3/5 | positive responses over number treated ([1]; propoxyphene 15 + compound 1 mg/kg i.p., 60'): 3/5 | positive responses over number treated ([1]; propoxyphene 15 + compound 1 mg/kg i.p., 90'): 3/5 | TOTAL positives ([1]; propoxyphene 15 + compound 3 mg/kg i.p.): 25 x/30 | positive responses over number treated ([1]; propoxyphene 15 + compound 3 mg/kg i.p., 10'): 3/5 | positive responses over number treated ([1]; propoxyphene 15 + compound 3 mg/kg i.p., 20'): 5/5 | positive responses over number treated ([1]; propoxyphene 15 + compound 3 mg/kg i.p., 30'): 4/5 | positive responses over number treated ([1]; propoxyphene 15 + compound 3 mg/kg i.p., 45'): 5/5 | positive responses over number treated ([1]; propoxyphene 15 + compound 3 mg/kg i.p., 60'): 4/5 | positive responses over number treated ([1]; propoxyphene 15 + compound 3 mg/kg i.p., 90'): 4/5 | TOTAL positives ([1]; propoxyphene 15 + compound 10 mg/kg i.p.): 27 x/30 | positive responses over number treated ([1]; propoxyphene 15 + compound 10 mg/kg i.p., 10'): 4/5 | positive responses over number treated ([1]; propoxyphene 15 + compound 10 mg/kg i.p., 20'): 5/5 | positive responses over number treated ([1]; propoxyphene 15 + compound 10 mg/kg i.p., 30'): 5/5 | positive responses over number treated ([1]; propoxyphene 15 + compound 10 mg/kg i.p., 45'): 5/5 | positive responses over number treated ([1]; propoxyphene 15 + compound 10 mg/kg i.p., 60'): 5/5 | positive responses over number treated ([1]; propoxyphene 15 + compound 10 mg/kg i.p., 90'): 3/5 | dose of maximum effect (propoxyphene potentiation) ([1]; with propoxyphene): 10 mg/kg i.p.

CCCCN(CCCC)C(=O)CCC(NC(=O)c1ccc(Cl)c(Cl)c1)C(=O)O [Compound D-2]
percentage variation of latency of pain sensation (morphine analgesia; 10'): 85.6 ± 14.0% | percentage variation of latency of pain sensation (morphine analgesia; 20'): 98.1 ± 2.0% | percentage variation of latency of pain sensation (morphine analgesia; 30'): 95.9 ± 4.0% | percentage variation of latency of pain sensation (morphine analgesia; 45'): 96.6 ± 3.0% | percentage variation of latency of pain sensation (morphine analgesia; 60'): 95.5 ± 3.0% | percentage variation of latency of pain sensation (morphine analgesia; 90'): 87.5 ± 6.0% | M (10-90) ± SE, mean percentage variation of latency (morphine analgesia): 93.2 ± 5.3% | Power ratio with respect to morphine alone (morphine analgesia): 3.12 | TOTAL positives ([1]; oxyphenylbutazone 50 + compound 3 mg/kg i.p.): 12 x/30 | positive responses over number treated ([1]; oxyphenylbutazone 50 + compound 3 mg/kg i.p., 10'): 2/5 | positive responses over number treated ([1]; oxyphenylbutazone 50 + compound 3 mg/kg i.p., 20'): 1/5 | positive responses over number treated ([1]; oxyphenylbutazone 50 + compound 3 mg/kg i.p., 30'): 2/5 | positive responses over number treated ([1]; oxyphenylbutazone 50 + compound 3 mg/kg i.p., 45'): 3/5 | positive responses over number treated ([1]; oxyphenylbutazone 50 + compound 3 mg/kg i.p., 60'): 3/5 | positive responses over number treated ([1]; oxyphenylbutazone 50 + compound 3 mg/kg i.p., 90'): 1/5 | TOTAL positives ([1]; oxyphenylbutazone 50 + compound 10 mg/kg i.p.): 12 x/30 | positive responses over number treated ([1]; oxyphenylbutazone 50 + compound 10 mg/kg i.p., 10'): 1/5 | positive responses over number treated ([1]; oxyphenylbutazone 50 + compound 10 mg/kg i.p., 20'): 1/5 | positive responses over number treated ([1]; oxyphenylbutazone 50 + compound 10 mg/kg i.p., 30'): 3/5 | positive responses over number treated ([1]; oxyphenylbutazone 50 + compound 10 mg/kg i.p., 45'): 3/5 | positive responses over number treated ([1]; oxyphenylbutazone 50 + compound 10 mg/kg i.p., 60'): 2/5 | positive responses over number treated ([1]; oxyphenylbutazone 50 + compound 10 mg/kg i.p., 90'): 2/5 | TOTAL positives ([1]; oxyphenylbutazone 50 + compound 30 mg/kg i.p.): 23 x/30 | positive responses over number treated ([1]; oxyphenylbutazone 50 + compound 30 mg/kg i.p., 10'): 3/5 | positive responses over number treated ([1]; oxyphenylbutazone 50 + compound 30 mg/kg i.p., 20'): 4/5 | positive responses over number treated ([1]; oxyphenylbutazone 50 + compound 30 mg/kg i.p., 30'): 4/5 | positive responses over number treated ([1]; oxyphenylbutazone 50 + compound 30 mg/kg i.p., 45'): 4/5 | positive responses over number treated ([1]; oxyphenylbutazone 50 + compound 30 mg/kg i.p., 60'): 4/5 | positive responses over number treated ([1]; oxyphenylbutazone 50 + compound 30 mg/kg i.p., 90'): 4/5
